Entries after “also recorded” stand apart in the source; their conditions may differ.
Tested on: zebrafish larvae
Assay: Light- and Optovin-induced motor response assay
Type: in vivo, zebrafish (Danio rerio)
Details: 10 μM optovin, wild-type zebrafish, pulsed violet light
Method: Light- and Optovin-induced motor response assay. Zebrafish larvae at 3 dpf were arrayed in 96-well plates and treated with 10 μM optovin (Fisher Scientific, cat #490110) in a total volume of 200 μL E3 media. Treated larvae were incubated at […] for 1 h in dark. […] Movement of the larvae was tracked and quantitated following 5×1s pulse of violet light after 10 s interval in the dark.
Identifying the protein targets of small molecules remains one of the major challenges in chemical biology and pharmacology. Herein it was hypothesized that MIC-Drop could be used to identify the targets of small molecules that result in complex behavioral phenotypes in the zebrafish. As proof-of-principle, optovin was utilized, a small molecule agonist of the trpa1b channel that allows photo-activatable behavioral modifications in zebrafish. Droplets targeting the trpa1b channel were spiked into a collection of droplets containing scrambled gRNAs in a 1:20 ratio (FIG. 7B). Droplet-injected embryos were arrayed into 96-well plates, treated with optovin and exposed to violet light flashes while simultaneously recording embryo movement. […] Thus, the MIC-Drop platform was able to be used to identify the target of optovin from among a library of non-target candidates.

Cc1cc(/C=C2/SC(=S)NC2=O)c(C)n1-c1cccnc1 [optovin]
motor response of zebrafish after treatment: light-dependent motor response; also recorded: light-dependent motion response
